Legend:
[1] = Log P by reversed-phase HPLC (C 18), acidic range; assay type: physicochemical; conditions: for chromatographic logP: reversed-phase HPLC column (C 18), given in the preparation examples, acidic or neutral range not given
Experimental: Log P values given in the tables were determined in accordance with EEC Directive 79/831 Annex V.A8 by HPLC (High Performance Liquid Chromatography) using a reversed-phase column (C 18). Temperature: 43° C. (a) Mobile phases for the determination in the acidic range: 0.1% aqueous phosphoric acid, acetonitrile; linear gradient from 10% acetonitrile to 90% acetonitrile—the corresponding measurement results in Tables 1 and 2 are labelled^a).

[2] = tested on: weeds; experiment: Post-emergence test, damage to weeds; assay type: in vivo; conditions: test plants of 5-15 cm sprayed, rated after three weeks
Experimental: Solvent: 5 part by weight of acetone
Emulsifier: 1 part by weight of alkylaryl polyglycol ether
To produce a suitable preparation of active compound, 1 part by weight of active compound is mixed with the stated amount of solvent, the stated amount of emulsifier is added and the concentrate is diluted with water to the desired concentration.
Test plants of a height of 5-15 cm are sprayed with the preparation of active compound such that the particular amounts of active compound desired are applied per unit area. The concentration of the spray liquor is chosen such that the particular amounts of active compound desired are applied in 1000 l of water/ha.
After three weeks, the degree of damage to the plants is rated in % damage in comparison to the development of the untreated control. The figures denote: • 0%=no effect (like untreated control) • 100%=total destruction

[3] = Table 1, labelled a): acidic range, 0.1% aqueous phosphoric acid/acetonitrile gradient, 43° C.
[4] = reversed-phase HPLC (C 18), acidic range: 0.1% aqueous phosphoric acid, acetonitrile; 43° C.; labelled a)

Row | Structure (SMILES) | log P [1, 3] | further results
1 | O=C(O)c1ccc(Cl)c(OCCCl)c1Cl [2,4-dichloro-3-(2-chloro-ethoxy)-benzoic acid] | – | chromatographic logP [1]: 2.31
2 | CCn1ncc(C(=O)c2ccc(Cl)c(OCCNC(=S)NC)c2Cl)c1O [Example I-2-2, N-(2-{2,6-dichloro-3-[(1-ethyl-5-hydroxy-1H-pyrazol-4-yl)-carbonyl]-phenoxy}-ethyl)-N′-methyl-thiourea] | – | chromatographic logP [1]: 1.6
3 | CCn1ncc(C(=O)c2ccc(Cl)c(OCCNC(C)=O)c2Cl)c1OCc1ccc(Br)cc1 [Example I-2-4, N-{2-[3-({5-[(4-bromo-benzyl)-oxy]-1-ethyl-1H-pyrazol-4-yl}-carbonyl)-2,6-dichloro-phenoxy]-ethyl}-acetamide] | – | chromatographic logP [1]: 2.06; activity against weeds [2]: strong activity
4 | O=C1CCCC(=O)C1C(=O)c1ccc(Cl)c(CNC(=S)Nc2ccccc2)c1Cl [Example I-2-9] | log P = 3.05^a) | –
5 | CC(C)NC(=O)N(Cc1c(Cl)ccc(C(=O)C2C(=O)CCCC2=O)c1Cl)C(C)C [Example I-2-10] | log P = 2.86^a) | –
6 | CC(C)NC(=O)N(Cc1c(Cl)ccc(C(=O)c2cnn(C)c2O)c1Cl)C(C)C [Example I-2-11] | log P = 2.02^a) | –
7 | CC(C)N(Cc1c(Cl)ccc(C(=O)C2C(=O)CCCC2=O)c1Cl)C(N)=O [Example I-2-12] | log P = 2.03^a) | –
8 | COCC(=O)NCCOc1c(Cl)ccc(C(=O)C2C(=O)CCCC2=O)c1Cl [Example I-2-13] | log P = 2.12^a) | –
9 | CC(C)N(Cc1c(Cl)ccc(C(=O)c2cnn(C)c2O)c1Cl)C(N)=O [Example I-2-14] | log P = 1.32^a) | –
10 | CCNC(=O)N(Cc1c(Cl)ccc(C(=O)C2C(=O)CCCC2=O)c1Cl)C(C)C [Example I-2-15] | log P = 2.33^a) | –
11 | CCNC(=O)N(Cc1c(Cl)ccc(C(=O)c2cnn(C)c2O)c1Cl)C(C)C [Example I-2-16] | log P = 1.42^a) | –
12 | CC(C)N(Cc1c(Cl)ccc(C(=O)C2C(=O)CCCC2=O)c1Cl)C(=O)N(C)C [Example I-2-17] | log P = 2.82^a) | –
13 | CC(C)N(Cc1c(Cl)ccc(C(=O)c2cnn(C)c2O)c1Cl)C(=O)N(C)C [Example I-2-18] | log P = 2.00^a) | –
14 | Cc1ccccc1NC(=O)NCc1c(Cl)ccc(C(=O)c2cnn(C)c2O)c1Cl [Example I-2-19] | log P = 1.95^a) | –
15 | CN(C)C(=O)NCc1c(Cl)ccc(C(=O)C2C(=O)CCCC2=O)c1Cl [Example I-2-21] | log P = 1.87^a) | –
16 | CC(C)NC(=O)NCc1c(Cl)ccc(C(=O)c2cnn(C)c2O)c1Cl [Example I-2-22] | log P = 1.35^a) | –
17 | CN(C)C(=O)NCc1c(Cl)ccc(C(=O)c2cnn(C)c2O)c1Cl [Example I-2-23] | log P = 1.13^a) | –
18 | CN(C)C(=O)N(Cc1c(Cl)ccc(C(=O)C2C(=O)CCCC2=O)c1Cl)C1CC1 [Example I-2-24] | log P = 2.45^a) | –
19 | CN(C)C(=O)N(Cc1c(Cl)ccc(C(=O)c2cnn(C)c2O)c1Cl)c1ccc(Cl)cc1 [Example I-2-25] | log P = 1.69^a) | –
20 | CC(C)N(Cc1c(Cl)ccc(C(=O)C2C(=O)CCCC2=O)c1Cl)C(=O)Oc1ccccc1 [Example I-2-42] | log P = 4.25^a) | –

Row | Structure (SMILES) | log P [1, 3] | further results
21 | CC(C)N(Cc1c(Cl)ccc(C(=O)c2cnn(C)c2O)c1Cl)C(=O)Oc1ccccc1 [Example I-2-43] | log P = 3.19^a) | –
22 | CCOC(=O)N(Cc1c(Cl)ccc(C(=O)C2C(=O)CCCC2=O)c1Cl)C(C)C [Example I-2-44] | log P = 3.69^a) | –
23 | CCOC(=O)N(Cc1c(Cl)ccc(C(=O)c2cnn(C)c2O)c1Cl)C(C)C [Example I-2-45] | log P = 2.69^a) | –
24 | CC(C)NC(=O)N(Cc1c(Cl)ccc(C(=O)C2C(=O)CCCC2=O)c1Cl)C1CC1 [Example I-2-56] | log P = 2.75^a) | –
25 | CNC(=S)N(Cc1c(Cl)ccc(C(=O)c2cnn(C)c2O)c1Cl)C(C)C [Example I-2-58] | log P = 1.91^a) | –
26 | CNC(=O)N(C)Cc1c(Cl)ccc(C(=O)C2C(=O)CCCC2=O)c1Cl [Example I-2-59] | log P = 1.81^a) | –
27 | CNC(=O)N(C)Cc1c(Cl)ccc(C(=O)c2cnn(C)c2O)c1Cl [Example I-2-60] | log P = 1.11^a) | –
28 | CN(C)C(=O)N(C)Cc1c(Cl)ccc(C(=O)C2C(=O)CCCC2=O)c1Cl [Example I-2-61] | log P = 2.26^a) | –
29 | CN(C)C(=O)N(C)Cc1c(Cl)ccc(C(=O)c2cnn(C)c2O)c1Cl [Example I-2-62] | log P = 1.48^a) | –
30 | CNC(=S)N(C)Cc1c(S(C)(=O)=O)ccc(C(=O)C2C(=O)CCCC2=O)c1Cl [Example I-2-63] | log P = 1.81^a) | –
31 | CNC(=S)N(C)Cc1c(S(C)(=O)=O)ccc(C(=O)c2cnn(C)c2O)c1Cl [Example I-2-64] | log P = 1.00^a) | –
32 | Cn1ncc(C(=O)c2ccc(S(C)(=O)=O)c(CNC(N)=O)c2Cl)c1O [Example I-2-65] | log P = 0.30^a) | –
33 | CCNC(=O)NCc1c(S(C)(=O)=O)ccc(C(=O)C2C(=O)CCCC2=O)c1Cl [Example I-2-66] | log P = 1.57^a) | –
34 | O=C(NCCOc1c(Cl)ccc(C(=O)C2C(=O)CCCC2=O)c1Cl)C1CC1 [Example I-2-68] | log P = 2.28^a) | –
35 | CC(C)OC(=O)NCCOc1c(Cl)ccc(C(=O)C2C(=O)CCCC2=O)c1Cl [Example I-2-69] | log P = 2.98^a) | –
36 | CNC(=O)NCCOc1c(Cl)ccc(C(=O)C2C(=O)CCCC2=O)c1Cl [Example I-2-73] | log P = 1.84^a) | –
37 | CNC(=S)NCCOc1c(Cl)ccc(C(=O)C2C(=O)CCCC2=O)c1Cl [Example I-2-75] | log P = 2.23^a) | –
38 | Cc1ccccc1NC(=O)NCc1c(S(C)(=O)=O)ccc(C(=O)c2cnn(C)c2O)c1Cl [Example I-2-81] | log P = 1.58^a) | –
39 | CN(C)C(=O)NCc1c(S(C)(=O)=O)ccc(C(=O)C2C(=O)CCCC2=O)c1Cl [Example I-2-82] | log P = 1.58^a) | –
40 | CN(C)C(=O)NCc1c(S(C)(=O)=O)ccc(C(=O)c2cnn(C)c2O)c1Cl [Example I-2-83] | log P = 0.77^a) | –

Row | Structure (SMILES) | log P [1, 3] | further results
41 | Cn1ncc(C(=O)c2ccc(Cl)c(OCCNC(N)=O)c2Cl)c1O [Example I-2-118] | log P = 1.66^a) | –
42 | Cn1ncc(C(=O)c2ccc(Cl)c(OCCNC(N)=O)c2Cl)c1O [Example I-2-119] | log P = 1.22^a) | –
43 | Cc1ccccc1NC(=O)NCc1c(S(C)(=O)=O)ccc(C(=O)C2C(=O)CCCC2=O)c1Cl [Example I-2-140] | log P = 2.35^a) | –
44 | CC(C)NC(=O)N(Cc1ccc(C(=O)C2C(=O)CCCC2=O)c([N+](=O)[O-])c1)C(C)C [Example I-3-5] | – | log P [1, 4]: log P = 2.53^a)
45 | CC(C)NC(=O)N(Cc1ccc(C(=O)c2cnn(C)c2O)c([N+](=O)[O-])c1)C(C)C [Example I-3-6] | – | log P [1, 4]: log P = 1.64^a)
46 | CC(C)N(Cc1ccc(C(=O)c2cnn(C)c2O)c([N+](=O)[O-])c1)C(=O)N(C)C [Example I-3-7] | – | log P [1, 4]: log P = 1.63^a)
47 | CCNC(=O)N(Cc1ccc(C(=O)C2C(=O)CCCC2=O)c([N+](=O)[O-])c1)c1ccccc1 [Example I-3-8] | – | log P [1, 4]: log P = 2.60^a)
48 | CCNC(=O)N(Cc1ccc(C(=O)c2cnn(C)c2O)c([N+](=O)[O-])c1)c1ccccc1 [Example I-3-9] | – | log P [1, 4]: log P = 1.75^a)
49 | CC(C)NC(=O)N(Cc1ccc(C(=O)C2C(=O)CCCC2=O)c([N+](=O)[O-])c1)c1ccccc1 [Example I-3-10] | – | log P [1, 4]: log P = 2.94^a)
50 | CC(C)NC(=O)N(Cc1ccc(C(=O)c2cnn(C)c2O)c([N+](=O)[O-])c1)c1ccccc1 [Example I-3-11] | – | log P [1, 4]: log P = 2.05^a)
51 | CNC(=O)N(C)Cc1ccc(C(=O)c2cnn(C)c2O)c([N+](=O)[O-])c1 [Example I-3-25] | – | log P [1, 4]: log P = 0.68^a)
52 | CC(C)N(Cc1ccc(C(=O)C2C(=O)CCCC2=O)c([N+](=O)[O-])c1)C(=O)Oc1ccccc1 [Example I-3-39] | – | log P [1, 4]: log P = 3.53^a)
53 | CC(C)N(Cc1ccc(C(=O)c2cnn(C)c2O)c([N+](=O)[O-])c1)C(=O)Oc1ccccc1 [Example I-3-40] | – | log P [1, 4]: log P = 2.59^a)
54 | CCOC(=O)N(Cc1ccc(C(=O)C2C(=O)CCCC2=O)c([N+](=O)[O-])c1)C(C)C [Example I-3-41] | – | log P [1, 4]: log P = 3.04^a)
55 | CCOC(=O)N(Cc1ccc(C(=O)c2cnn(C)c2O)c([N+](=O)[O-])c1)C(C)C [Example I-3-42] | – | log P [1, 4]: log P = 2.06^a)
56 | CCn1ncc(C(=O)c2ccc(Cl)c(OCCN)c2Cl)c1O [II-1, [3-(2-amino-ethoxy)-2,4-dichloro-phenyl]-(1-ethyl-5-hydroxy-1H-pyrazol-4-yl)-methanone] | – | chromatographic logP [1]: 0.72
57 | CCn1ncc(C(=O)c2ccc(Cl)c(OCCCl)c2Cl)c1O [[2,4-dichloro-3-(2-chloro-ethoxy)-phenyl]-(1-ethyl-5-hydroxy-1H-pyrazol-4-yl)-methanone] | – | chromatographic logP [1]: 2.73
58 | CCOC(=O)c1ccc(Cl)c(OCCCl)c1Cl [ethyl 2,4-dichloro-3-(2-chloro-ethoxy)-benzoate] | – | chromatographic logP [1]: 3.76

Reference: US7456133B2, “Substituted arylketones” (Bayer CropScience AG, priority 2001, dated 2008)
